The results in this text go back to patent US7667054B2, “Cytotoxic agents comprising new taxanes” (priority 2004, dated 2010).

One experiment has as its system MCF7. Nature of the experiment: activity of the taxoids on MCF7 (procedure of Riou, Naudin and Lavelle). It counts as cell-based. The conditions noted are these: Homo sapiens, MCF7, read-out: MCF7. Here is the method:
(§1) The activity of the compounds of the present invention were determined following the proceeding described by Riou, Naudin and Lavelle in Biochemical and Biophysical Research Communications; Vol. 187, No1, 1992, p 164-170.

A further experiment has as its system A549. Nature of the experiment: activity of the taxoids on A549 (procedure of Riou, Naudin and Lavelle). Type of experiment: cell-based. The conditions noted are these: Homo sapiens, A549, read-out: A549. The procedure:
as §1

The next experiment deals with A-375 cells. The experiment is described as follows: in vitro potency of huC242-Taxoid conjugate and free taxoid, WST-8 assay, antigen negative cells. The conditions noted are these: for IC50: human melanoma A-375 cells (antigen negative), 4 days, WST-8. It counts as cell-based, human. The procedure:
(§2) Samples of free taxoid or huC242-Taxoid conjugate were added to a 96-well flat bottomed tissue culture plate and titrated using serial dilutions ranging from 1×10^−12 M to 3×10^−7 M. Human colon tumor cells, COLO 205, or human melanoma cells, A-375, were added to the wells in such a way that there were triplicate samples for each drug concentration for each cell line. The plates were incubated at 37° C. in an atmosphere of 5% CO2 for 4 days.
(§3) At the end of the incubation period, 20 μl of the tetrazolium reagent WST-8 (2-(2-methoxy-nitrophenyl)-3-(4-nitrophenyl)-5-(2,4-disulfophenyl)-2-tetrazolium, monosodium salt]) was added to each well, and the plates were returned to the incubator for 2 hours. The absorbance in each well of the plates was then measured using the Molecular Devices plate reader at 450 nm. Surviving fraction of cells at each concentration of taxoid or conjugate are plotted in FIGS. 2a, b.
A general note: Tetrazolium dyes change colour on reduction, which living cells bring about.

The subject of another experiment is COLO 205 cells. The experiment is described as follows: in vitro potency of huC242-Taxoid conjugate and free taxoid, WST-8 assay, antigen positive cells. It counts as cell-based. The conditions noted are these: human colon cancer COLO 205 cells (antigen positive), 4 days. Here is the method:
as §2, §3

Turning to `COc1ccc(OC)c(C(=O)O[C@H]2[C@@H]3[C@]4(OC(C)=O)CO[C@@H]4C[C@H]4O[C@@H]([C@H](OC(=O)N(C)C)C5=C(C)[C@@H](OC(=O)[C@H](O)[C@H](C=C(C)C)NC(=O)OC(C)(C)C)C[C@]2(O)C5(C)C)[C@@]34C)c1` [IGT-15-014], the figures for the IC50 in the experiment with MCF7 and with A549 were 0.024 nM and 0.03 nM, respectively.
On to `COc1ccc(OC)c(C(=O)O[C@H]2[C@@H]3[C@]4(OC(C)=O)CO[C@@H]4C[C@H]4O[C@@H]([C@H](OC(=O)NCC(C)(C)SSC)C5=C(C)[C@@H](OC(=O)[C@H](O)[C@@H](NC(=O)OC(C)(C)C)c6ccco6)C[C@]2(O)C5(C)C)[C@@]34C)c1` [IGT-15-075, 7α,9α-epoxy-3′-dephenyl-3′-(2-furyl)-2-debenzoyl-2-(2,5-dimethoxybenzoyl)-10-(N-2,2-dimethyl-2-methyidithio-ethylcarbamoyl)-docetaxel], for which the IC50 in the experiment on A-375 cells (96 h) and in the experiment on COLO 205 cells (96 h) was around 0.1 nM throughout.

B1: huC242-taxoid (conjugate, chains of the INN, looked up)
VH: QVQLVQSGAEVKKPGETVKISCKASDYTFTYYGMNWVKQAPGQGLKWMGWIDTTTGEPTYAQKFQGRIAFSLETSASTAYLQIKSLKSEDTATYFCARRGPYNWYFDVWGQGTTVTVSS
VL: DIVMTQSPLSVPVTPGEPVSISCRSSKSLLHSNGNTYLYWFLQRPGQSPQLLIYRMSNLVSGVPDRFSGSGSGTAFTLRISRVEAEDVGVYYCLQHLEYPFTFGPGTKLELK
modifications: taxoid payload conjugate
For B1, the “fold less sensitive, antigen negative cells vs COLO 205” value in the experiment on A-375 cells (A-375 versus COLO 205) was “about 150 fold”. In addition, the IC50 was found to be 12 nM in the experiment with A-375 cells and 0.08 nM in the experiment with COLO 205 cells.
